From ChEMBL document CHEMBL4219049, “Peptide therapeutics for the treatment of gastrointestinal disorders” (Bioorg Med Chem, 2018) come the findings set out here.

Each structure is given as a SMILES string. Bridge positions count the residues as written; N and C are the ends. Peptide text beside a SMILES is read from it.

The nature of data set [1]: Elimination half-life in human plasma at 0.8 pmol/kg.min, iv. The format is ADME, cell-free. Particulars: read-out: beta t1/2.
The species entered for data set [2] is Homo sapiens. Nature of the data set: Reduction in worst abdominal pain in patient with irritable bowel syndrome with constipation after 26 weeks (reference value: 25%). Format: functional. Set-up: scale not given: the % may be the effect or the level left.
The species entered for data set [3] is Homo sapiens. The experiment in a line: Toxicity in patient with irritable bowel syndrome with constipation assessed as induction of diarrhea after 26 weeks (reference value: 2.5%). Format: organism-based. Particulars: in vivo, 4368 h.
Data set [4] is filed under the species Homo sapiens. Nature of the data set: Toxicity in patient with chronic idiopathic constipation assessed as induction of diarrhea at 3 mg for 12 weeks (reference value: 1.3%). Format: organism-based. The settings on record: in vivo, 2016 h.
For data set [5], the species on record is Homo sapiens. The experiment in a line: Toxicity in patient with chronic idiopathic constipation assessed as induction of diarrhea at 6 mg for 12 weeks (reference value: 1.3%). Format: organism-based. Particulars: in vivo, 2016 h.
For data set [6], the species on record is Homo sapiens. Nature of the data set: Increase in complete spontaneous bowel movements in patient with chronic idiopathic constipation at 3 mg for 12 weeks (reference value: 10.2%). The format is functional.
For data set [7], the species on record is Homo sapiens. Nature of the data set: Increase in complete spontaneous bowel movements in patient with chronic idiopathic constipation at 6 mg for 12 weeks (reference value: 10.2%). The format is functional.

Regarding `CC[C@H](C)[C@H](NC(=O)[C@H](Cc1ccccc1)NC(=O)[C@H](CC(=O)O)NC(=O)[C@H](CCCN=C(N)N)NC(=O)[C@H](C)NC(=O)[C@H](C)NC(=O)[C@H](CC(C)C)NC(=O)[C@H](CC(N)=O)NC(=O)[C@H](CC(=O)O)NC(=O)[C@H](CC(C)C)NC(=O)[C@@H](NC(=O)[C@@H](NC(=O)[C@H](CC(N)=O)NC(=O)[C@H](CCSC)NC(=O)[C@H](CCC(=O)O)NC(=O)[C@H](CC(=O)O)NC(=O)[C@H](CO)NC(=O)[C@H](Cc1ccccc1)NC(=O)[C@H](CO)NC(=O)CNC(=O)[C@H](CC(=O)O)NC(=O)[C@H](C)NC(=O)[C@@H](N)Cc1cnc[nH]1)[C@@H](C)O)[C@@H](C)CC)C(=O)N[C@@H](CC(N)=O)C(=O)N[C@@H](Cc1c[nH]c2ccccc12)C(=O)N[C@@H](CC(C)C)C(=O)N[C@H](C(=O)N[C@@H](CCC(N)=O)C(=O)N[C@H](C(=O)N[C@@H](CCCCN)C(=O)N[C@H](C(=O)N[C@H](C(=O)N[C@@H](CC(=O)O)C(=O)O)[C@@H](C)O)[C@@H](C)CC)[C@@H](C)O)[C@@H](C)CC`, the half-life in data set [1] was found to be 7.2 min.
Regarding `C[C@@H]1NC(=O)[C@@H]2CCCN2C(=O)[C@H](CC(N)=O)NC(=O)[C@@H]2CSSC[C@H](N)C(=O)N[C@H]3CSSC[C@H](NC1=O)C(=O)N[C@@H]([C@@H](C)O)C(=O)NCC(=O)N[C@H](C(=O)N[C@@H](Cc1ccc(O)cc1)C(=O)O)CSSC[C@H](NC(=O)[C@H](Cc1ccc(O)cc1)NC(=O)[C@H](CCC(=O)O)NC3=O)C(=O)N2` [LINACLOTIDE] (H-CCEYCCNPACTGCY-OH; disulfide 1-6, 2-10, 5-13), the figures for the Activity in data set [2] and in data set [3] were 47% and 19.7%, respectively.
Take `CC(C)C[C@H](NC(=O)[C@@H]1CSSC[C@@H]2NC(=O)[C@H](CC(C)C)NC(=O)[C@H](CCC(=O)O)NC(=O)[C@@H](NC(=O)[C@H](CCC(=O)O)NC(=O)[C@H](CC(=O)O)NC(=O)[C@@H](N)CC(N)=O)CSSC[C@H](NC(=O)[C@H](C)NC(=O)[C@H](C(C)C)NC(=O)[C@H](CC(N)=O)NC(=O)[C@H](C(C)C)NC2=O)C(=O)N[C@@H]([C@@H](C)O)C(=O)NCC(=O)N1)C(=O)O` [PLECANATIDE]: the Activity in data set [4] came out at 5.9%; in data set [5], 5.7%; in data set [6], 21%; in data set [7] it was 19.5%.
